Active and inactive are the calls of the source. The calls are words filed in the database; no cut-off is given here.
Key:
Pseudomonas aeruginosa [1] = assay: Antibacterial activity against Pseudomonas aeruginosa incubated for 16 to 20 hrs; type: functional; conditions: time 16-20 hrs
Klebsiella pneumoniae [2] = assay: Antibacterial activity against NDM Klebsiella pneumoniae incubated for 16 to 20 hrs; type: functional; conditions: time 16-20 hrs
Klebsiella aerogenes [3] = assay: Antibacterial activity against Enterobacter aerogenes incubated for 16 to 20 hrs; type: functional; conditions: time 16-20 hrs
Aeromonas hydrophila = assay: Antibacterial activity against Aeromonas hydrophila incubated for 16 to 20 hrs; type: functional; conditions: time 16-20 hrs
Klebsiella oxytoca [4] = assay: Antibacterial activity against Klebsiella oxytoca incubated for 16 to 20 hrs; type: functional; conditions: time 16-20 hrs
Streptococcus iniae [5] = assay: Antibacterial activity against Streptococcus iniae incubated for 16 to 20 hrs; type: functional; conditions: time 16-20 hrs
Candida tropicalis [6] = assay: Antifungal activity against Candida tropicalis incubated for 16 to 20 hrs; type: functional; conditions: time 16-20 hrs
Nakaseomyces glabratus [7] = assay: Antifungal activity against Candida glabrata incubated for 16 to 20 hrs; type: functional; conditions: time 16-20 hrs
Vibrio vulnificus [8] = assay: Antibacterial activity against Vibrio vulnificus V1 incubated for 16 to 20 hrs; type: functional; conditions: time 16-20 hrs
Vibrio vulnificus [9] = assay: Antibacterial activity against Vibrio vulnificus V2 incubated for 16 to 20 hrs; type: functional; conditions: time 16-20 hrs
Pseudomonas aeruginosa [10] = assay: Bactericidal activity against Pseudomonas aeruginosa incubated overnight; type: functional
Klebsiella pneumoniae [11] = assay: Bactericidal activity against NDM Klebsiella pneumoniae incubated overnight; type: functional
Klebsiella aerogenes [12] = assay: Bactericidal activity against Enterobacter aerogenes incubated overnight; type: functional
Vibrio vulnificus [13] = assay: Bactericidal activity against Vibrio vulnificus 204 incubated overnight; type: functional
Vibrio harveyi = assay: Bactericidal activity against Vibrio harveyi incubated overnight; type: functional
Edwardsiella tarda = assay: Bactericidal activity against Edwardsiella tarda incubated overnight; type: functional
Klebsiella oxytoca [14] = assay: Bactericidal activity against Klebsiella oxytoca incubated overnight; type: functional
Salmonella enterica = assay: Bactericidal activity against Salmonella enterica incubated overnight; type: functional
Enterococcus faecium = assay: Bactericidal activity against Enterococcus faecium incubated overnight; type: functional
Candida tropicalis [15] = assay: Fungicidal activity against Candida tropicalis incubated overnight; type: functional
Nakaseomyces glabratus [16] = assay: Fungicidal activity against Candida glabrata incubated overnight; type: functional
Vibrio vulnificus [17] = assay: Bactericidal activity against Vibrio vulnificus V1 incubated overnight; type: functional
Vibrio vulnificus [18] = assay: Bactericidal activity against Vibrio vulnificus V2 incubated overnight; type: functional
[19] = Cytotoxicity against human HaCaT cells incubated for 24 hrs by MTS assay; type: toxicity, cell-based; conditions: read-out: LD50
[20] = Cytotoxicity against human HaCaT cells incubated for 24 hrs by LDH assay; type: toxicity, cell-based; conditions: read-out: LD50
Vibrio vulnificus [21] = assay: Antibacterial activity against Vibrio vulnificus 204 assessed as induction of resistance development by measuring fold increase in MIC measured after 15 passages; type: functional
Vibrio vulnificus [22] = assay: Antibacterial activity against Vibrio vulnificus 204 assessed as LPS neutralization at 0.25 to 2 times MIC measured after 1 hr by LAL assay; type: functional, organism-based
Vibrio vulnificus [23] = assay: Antibiofilm activity against Vibrio vulnificus 204 assessed as inhibition of biofilm formation at 25 to 100 ug/ml incubated for 24 hrs by crystal violet staining based assay; type: functional, organism-based; conditions: dose 25-100 µg/ml
Vibrio vulnificus [24] = assay: Antibiofilm activity against Vibrio vulnificus V2 assessed as inhibition of biofilm formation at 25 to 100 ug/ml incubated for 24 hrs by crystal violet staining based assay; type: functional, organism-based; conditions: dose 25-100 µg/ml
Vibrio vulnificus [25] = assay: Antibiofilm activity against Vibrio vulnificus V1 assessed as inhibition of biofilm formation at 25 to 100 ug/ml incubated for 24 hrs by crystal violet staining based assay; type: functional, organism-based; conditions: dose 25-100 µg/ml
Vibrio vulnificus [26] = assay: Antibiofilm activity against Vibrio vulnificus 204 assessed as inhibition of biofilm formation at 50 to 100 ug/ml incubated for 24 hrs by crystal violet staining based assay; type: functional, organism-based; conditions: dose 50-100 µg/ml
Vibrio vulnificus [27] = assay: Antibiofilm activity against Vibrio vulnificus V1 assessed as inhibition of biofilm formation at 50 to 100 ug/ml incubated for 24 hrs by crystal violet staining based assay; type: functional, organism-based; conditions: dose 50-100 µg/ml
Vibrio vulnificus [28] = assay: Antibiofilm activity against Vibrio vulnificus V1 assessed as inhibition of biofilm formation at 25 ug/ml incubated for 24 hrs by crystal violet staining based assay; type: functional, organism-based; conditions: dose 25.0 µg/ml
Vibrio vulnificus [29] = assay: Antibiofilm activity against Vibrio vulnificus V2 assessed as inhibition of biofilm formation at 25 ug/ml incubated for 24 hrs by crystal violet staining based assay; type: functional, organism-based; conditions: dose 25.0 µg/ml
Cell membrane = assay: Induction of membrane deformation in Vibrio vulnificus at 1 to 2 times MIC incubated for 30 mins by SEM analysis; type: subcellular
Vibrio vulnificus [30] = assay: Antibacterial activity against Vibrio vulnificus at pH 2 to 10; type: functional, organism-based
Vibrio vulnificus [31] = assay: Antibacterial activity against Vibrio vulnificus treated with preheated compounds; type: functional, organism-based
Vibrio vulnificus [32] = assay: Antibacterial activity against Vibrio vulnificus in presence of pancreatin; type: functional, organism-based
Vibrio vulnificus [33] = assay: Antibacterial activity against Vibrio vulnificus in presence of 10 ug/ml proteinase K; type: functional, organism-based
Vibrio vulnificus [34] = assay: Antibacterial activity against Vibrio vulnificus in presence of 0.1 ug/ml pepsin; type: functional, organism-based
Vibrio vulnificus [35] = assay: Antibacterial activity against Vibrio vulnificus in presence of 0.1 ug/ml trypsin; type: functional, organism-based
Vibrio vulnificus [36] = assay: Antibacterial activity against Vibrio vulnificus in presence of 1 to 10 ug/ml pepsin; type: functional, organism-based
Streptococcus iniae [37] = assay: Synergistic antibacterial activity against Streptococcus iniae in presence of doxycycline by checkerboard microtiter plate assay; type: functional
Vibrio vulnificus [38] = assay: Synergistic antibacterial activity against Vibrio vulnificus in presence of doxycycline by checkerboard microtiter plate assay; type: functional
Pseudomonas aeruginosa [39] = assay: Additive antibacterial activity against Pseudomonas aeruginosa in presence of meropenem by checkerboard microtiter plate assay; type: functional
Vibrio vulnificus [40] = assay: Synergistic antibacterial activity against Vibrio vulnificus in presence of meropenem by checkerboard microtiter plate assay; type: functional
Escherichia coli [41] = assay: Synergistic antibacterial activity against Escherichia coli in presence of meropenem by checkerboard microtiter plate assay; type: functional
Streptococcus agalactiae [42] = assay: Synergistic antibacterial activity against Streptococcus agalactiae assessed as doxycycline MIC by checkerboard microtiter plate assay; type: functional
Acinetobacter baumannii = assay: Synergistic antibacterial activity against Acinetobacter baumannii assessed as doxycycline MIC by checkerboard microtiter plate assay; type: functional
Vibrio vulnificus [43] = assay: Synergistic antibacterial activity against Vibrio vulnificus assessed as doxycycline MIC by checkerboard microtiter plate assay; type: functional
Klebsiella pneumoniae [44] = assay: Synergistic antibacterial activity against Klebsiella pneumoniae expressing NDM1 assessed as doxycycline MIC by checkerboard microtiter plate assay; type: functional
Streptococcus agalactiae [45] = assay: Synergistic antibacterial activity against Streptococcus agalactiae assessed as meropenem MIC by checkerboard microtiter plate assay; type: functional
Streptococcus iniae [46] = assay: Additive antibacterial activity against Streptococcus iniae assessed as meropenem MIC by checkerboard microtiter plate assay; type: functional
Escherichia coli [47] = assay: Synergistic antibacterial activity against Escherichia coli assessed as meropenem MIC by checkerboard microtiter plate assay; type: functional
Streptococcus iniae [48] = assay: Synergistic antibacterial activity against Streptococcus iniae assessed as fractional inhibitory concentration in presence of doxycycline by checkerboard microtiter plate assay; type: functional
Vibrio vulnificus [49] = assay: Synergistic antibacterial activity against Vibrio vulnificus assessed as fractional inhibitory concentration in presence of doxycycline by checkerboard microtiter plate assay; type: functional
Klebsiella pneumoniae [50] = assay: Synergistic antibacterial activity against Klebsiella pneumoniae expressing NDM1 assessed as fractional inhibitory concentration in presence of doxycycline by checkerboard microtiter plate assay; type: functional
Streptococcus agalactiae [51] = assay: Synergistic antibacterial activity against Streptococcus agalactiae assessed as fractional inhibitory concentration in presence of meropenem by checkerboard microtiter plate assay; type: functional
Vibrio vulnificus [52] = assay: Synergistic antibacterial activity against Vibrio vulnificus assessed as fractional inhibitory concentration in presence of meropenem by checkerboard microtiter plate assay; type: functional

H-FKWKSVLKGVKGFVKGYF-OH
MIC (Pseudomonas aeruginosa [1]): 25 µg/mL
MIC (Klebsiella pneumoniae [2]): 25 µg/mL
MIC (Klebsiella aerogenes [3]): 12.5 µg/mL
MIC (Aeromonas hydrophila): > 100 µg/mL
MIC (Klebsiella oxytoca [4]): 25 µg/mL
MIC (Streptococcus iniae [5]): < 1.56 µg/mL
MIC (Candida tropicalis [6]): 50 µg/mL
MIC (Nakaseomyces glabratus [7]): > 100 µg/mL
MIC (Vibrio vulnificus [8]): 12.5 µg/mL
MIC (Vibrio vulnificus [9]): 12.5 µg/mL
MBC (Pseudomonas aeruginosa [10]): 50 µg/mL
MBC (Klebsiella pneumoniae [11]): 25 µg/mL
MBC (Klebsiella aerogenes [12]): 12.5 µg/mL
MBC (Vibrio vulnificus [13]): 6.25 µg/mL
MBC (Vibrio harveyi): > 100 µg/mL
MBC (Edwardsiella tarda): 50 µg/mL
MBC (Klebsiella oxytoca [14]): 25 µg/mL
MBC (Salmonella enterica): 12.5 µg/mL
MBC (Enterococcus faecium): > 100 µg/mL
MFC (Candida tropicalis [15]): 100 µg/mL
MFC (Nakaseomyces glabratus [16]): > 100 µg/mL
MBC (Vibrio vulnificus [17]): 12.5 µg/mL
MBC (Vibrio vulnificus [18]): 12.5 µg/mL
CC50 at 24 h [19]: > 100 µg/mL
CC50 at 24 h [20]: > 100 µg/mL
fold change (FC) (Vibrio vulnificus [21]): <2
Activity (Vibrio vulnificus [22]): Active
Activity (Vibrio vulnificus [23]): Active
Activity (Vibrio vulnificus [24]): Active
Activity (Vibrio vulnificus [25]): Active
Activity (Vibrio vulnificus [26]): Active
Activity (Vibrio vulnificus [27]): Active
Activity (Vibrio vulnificus [28]): inactive
Activity (Vibrio vulnificus [29]): inactive
Activity (Cell membrane): Active
Activity (Vibrio vulnificus [30]): Active
Activity (Vibrio vulnificus [31]): Active
Activity (Vibrio vulnificus [32]): Active
Activity (Vibrio vulnificus [33]): inactive
Activity (Vibrio vulnificus [34]): Active
Activity (Vibrio vulnificus [35]): Active
Activity (Vibrio vulnificus [36]): Active
MIC (Streptococcus iniae [37]): 0.024 µg/mL
MIC (Vibrio vulnificus [38]): 0.097 µg/mL
MIC (Pseudomonas aeruginosa [39]): 6.25 µg/mL
MIC (Vibrio vulnificus [40]): 0.097 µg/mL
MIC (Escherichia coli [41]): 0.097 µg/mL
MIC (Streptococcus agalactiae [42]): 0.006 µg/mL
MIC (Acinetobacter baumannii): 0.003 µg/mL
MIC (Vibrio vulnificus [43]): 0.006 µg/mL
MIC (Klebsiella pneumoniae [44]): 1.56 µg/mL
MIC (Streptococcus agalactiae [45]): 0.002 µg/mL
MIC (Streptococcus iniae [46]): 0.195 µg/mL
MIC (Escherichia coli [47]): 0.001 µg/mL
FIC (Streptococcus iniae [48]): 0.04
FIC (Vibrio vulnificus [49]): 0.14
FIC (Klebsiella pneumoniae [50]): 0.18
FIC (Streptococcus agalactiae [51]): 0.07
FIC (Vibrio vulnificus [52]): 0.14

H-KKCIAKAILKKAKKLLKKLVNP-OH
MIC (Pseudomonas aeruginosa [1]): 25 µg/mL
MIC (Klebsiella pneumoniae [2]): 25 µg/mL
MIC (Klebsiella aerogenes [3]): 12.5 µg/mL
MIC (Aeromonas hydrophila): > 100 µg/mL
MIC (Klebsiella oxytoca [4]): 50 µg/mL
MIC (Streptococcus iniae [5]): < 1.56 µg/mL
MIC (Candida tropicalis [6]): 100 µg/mL
MIC (Nakaseomyces glabratus [7]): > 100 µg/mL
MIC (Vibrio vulnificus [8]): 12.5 µg/mL
MIC (Vibrio vulnificus [9]): 12.5 µg/mL
MBC (Pseudomonas aeruginosa [10]): 50 µg/mL
MBC (Klebsiella pneumoniae [11]): 25 µg/mL
MBC (Klebsiella aerogenes [12]): 12.5 µg/mL
MBC (Vibrio vulnificus [13]): 6.25 µg/mL
MBC (Vibrio harveyi): 25 µg/mL
MBC (Edwardsiella tarda): > 100 µg/mL
MBC (Klebsiella oxytoca [14]): 50 µg/mL
MBC (Salmonella enterica): 12.5 µg/mL
MBC (Enterococcus faecium): > 100 µg/mL
MFC (Candida tropicalis [15]): > 100 µg/mL
MFC (Nakaseomyces glabratus [16]): > 100 µg/mL
MBC (Vibrio vulnificus [17]): 12.5 µg/mL
MBC (Vibrio vulnificus [18]): 12.5 µg/mL
CC50 at 24 h [19]: > 100 µg/mL
CC50 at 24 h [20]: > 100 µg/mL
fold change (FC) (Vibrio vulnificus [21]): <2
Activity (Vibrio vulnificus [22]): inactive
Activity (Vibrio vulnificus [23]): Active
Activity (Vibrio vulnificus [24]): Active
Activity (Vibrio vulnificus [25]): Active
Activity (Vibrio vulnificus [26]): Active
Activity (Vibrio vulnificus [27]): Active
Activity (Vibrio vulnificus [28]): inactive
Activity (Vibrio vulnificus [29]): inactive
Activity (Cell membrane): Active
Activity (Vibrio vulnificus [30]): Active
Activity (Vibrio vulnificus [31]): Active
Activity (Vibrio vulnificus [32]): Active
Activity (Vibrio vulnificus [33]): inactive
Activity (Vibrio vulnificus [34]): Active
Activity (Vibrio vulnificus [35]): Active
Activity (Vibrio vulnificus [36]): Active
MIC (Streptococcus iniae [37]): 0.048 µg/mL
MIC (Vibrio vulnificus [38]): 0.195 µg/mL
MIC (Pseudomonas aeruginosa [39]): 0.78 µg/mL
MIC (Vibrio vulnificus [40]): 0.195 µg/mL
MIC (Escherichia coli [41]): 0.39 µg/mL
MIC (Streptococcus agalactiae [42]): 0.006 µg/mL
MIC (Acinetobacter baumannii): 0.003 µg/mL
MIC (Vibrio vulnificus [43]): 0.006 µg/mL
MIC (Klebsiella pneumoniae [44]): 3.12 µg/mL
MIC (Streptococcus agalactiae [45]): 0.002 µg/mL
MIC (Streptococcus iniae [46]): 0.195 µg/mL
MIC (Escherichia coli [47]): 0.001 µg/mL
FIC (Streptococcus iniae [48]): 0.04
FIC (Vibrio vulnificus [49]): 0.14
FIC (Klebsiella pneumoniae [50]): 0.37
FIC (Streptococcus agalactiae [51]): 0.07
FIC (Vibrio vulnificus [52]): 0.14
